Here are results for 7 compounds from ChEMBL document CHEMBL1133878, “Selectivity enhancement induced by substitution of non-natural analogues of arginine and lysine in arginine-based thrombin inhibitors” (Bioorg Med Chem Lett, 2001).

A value given as a limit tells only on which side of the number the result lay.

One test deals with Prothrombin (Homo sapiens, UniProt P00734). As to the kind of experiment: Binding affinity determined against thrombin by Dixon method.
In test [1] the target is Thrombin & trypsin (Homo sapiens) (UniProt P00734+P07477+P07478+P35030). As to the kind of experiment: Selectivity ratio (trypsin/thrombin) was calculated. It is filed as protein assay.
Another test addresses T1, Serine protease 1 (Bos taurus, UniProt P00760).
T1 sequence (P00760 whole entry): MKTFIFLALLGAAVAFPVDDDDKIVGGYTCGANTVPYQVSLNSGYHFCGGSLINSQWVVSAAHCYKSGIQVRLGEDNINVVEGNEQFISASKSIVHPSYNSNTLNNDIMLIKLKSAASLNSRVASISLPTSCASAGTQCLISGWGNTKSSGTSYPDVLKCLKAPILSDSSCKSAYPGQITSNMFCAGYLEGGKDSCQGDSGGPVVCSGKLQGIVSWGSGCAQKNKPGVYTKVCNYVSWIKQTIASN
As to the kind of experiment: Binding affinity determined against trypsin by Dixon method.

`CNC(C)CCCCC(NS(=O)(=O)c1cccc2c(N(C)C)cccc12)C(=O)N1CCCCC1` (stereo unspecified) yielded a Ki on Prothrombin above 10 µM.

In turn, `CN(C)c1cccc2c(S(=O)(=O)NC(CCCNC3=NCCCN3)C(=O)N3CCCCC3)cccc12` (stereo unspecified) gave an inhibition constant (Ki) on Prothrombin above 10 µM.

For the compound `CN(C)c1cccc2c(S(=O)(=O)NC(CCCNC3=NCCN3)C(=O)N3CCCCC3)cccc12` (stereo unspecified), in test [1], the Selectivity ratio is 29.4. On Serine protease 1, this compound yielded an inhibition constant (Ki) of 116 µM.

For `CN(C)c1cccc2c(S(=O)(=O)NC(CCCN3CCN=C3N)C(=O)N3CCCCC3)cccc12` (stereo unspecified), in test [1], the Selectivity ratio was 525. The figures for the inhibition constant Ki on Prothrombin and at Serine protease 1 were 0.53 µM and 278 µM, respectively.

Turning to `CC/N=C(/N)NCCCC(NS(=O)(=O)c1cccc2c(N(C)C)cccc12)C(=O)N1CCCCC1` (stereo unspecified), the Selectivity ratio in test [1] was 178. The results for the inhibition constant (Ki) on Prothrombin and at Serine protease 1 were 1.89 µM and 337 µM, respectively.

With `CN(C)c1cccc2c(S(=O)(=O)NC(CCCN=C(N)N)C(=O)N3CCCCC3)cccc12` (stereo unspecified), in test [1], the Selectivity ratio was 28.2. For the same compound, the Ki on Prothrombin is 0.083 µM; at Serine protease 1, 2.34 µM.

For the compound `C/N=C(/N)NCCCC(NS(=O)(=O)c1cccc2c(N(C)C)cccc12)C(=O)N1CCCCC1` (stereo unspecified), the Selectivity ratio in test [1] was 962. Besides, the values for the Ki on Prothrombin and on Serine protease 1 were 0.958 µM and 922 µM, respectively.
